From patent US20260042755A1, “GPR6 INVERSE AGONISTS” (MapLight Therapeutics, Inc., priority 2022, published 2026) come the findings set out here.

Usually IC50 stands for the concentration at which inhibition is half-maximal.

One assay deals with T1, GPR6 (Homo sapiens, UniProt P46095).
T1 construct: expressed in transfected cells; host or cells: CHO cells
The assay can be described thus: GPR6 antagonist functional cAMP assay (LANCE Ultra cAMP TR-FRET, CHO cells stably expressing GPR6). It is filed as cell-based. In a few lines: (§1)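 10,000 cells/well; KRB buffer + 0.1% BSA + 150 μM Ro 20-1724; cpd 45 min, 37 °C, 0.1% DMSO; TR-FRET cAMP, 665 nm; 4-PL fit, normalized to DMSO (0.1%) and reference (100%) → IC50.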

For a further assay, the target named is T2, GPR3 (Homo sapiens, UniProt P46089).
T2 construct: expressed in transfected cells; host or cells: CHO cells
T2 sequence (P46089 whole entry, species assumed): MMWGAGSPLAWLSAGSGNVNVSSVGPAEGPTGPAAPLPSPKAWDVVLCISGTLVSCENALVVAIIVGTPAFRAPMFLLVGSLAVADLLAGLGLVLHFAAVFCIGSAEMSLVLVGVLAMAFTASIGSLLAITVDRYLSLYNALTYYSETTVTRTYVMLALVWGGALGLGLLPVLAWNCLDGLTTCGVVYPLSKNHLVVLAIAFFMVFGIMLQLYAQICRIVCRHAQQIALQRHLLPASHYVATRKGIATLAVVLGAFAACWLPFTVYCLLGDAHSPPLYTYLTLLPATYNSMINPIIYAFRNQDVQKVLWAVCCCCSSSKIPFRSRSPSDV
The assay can be described thus: GPR3 antagonist functional cAMP assay (LANCE Ultra cAMP TR-FRET, CHO cells stably expressing GPR3). It is filed as cell-based. In a few lines:
as §1

Setting [1] is: CHO cells stably expressing GPR6, cAMP assay (Example 24).
Where [2] appears, read: CHO cells stably expressing GPR3, cAMP assay (Example 24).
Where [3] appears, read: CHO cells stably expressing GPR6, cAMP assay.
Setting [4] is: CHO cells stably expressing GPR3, cAMP assay.
The mark [5] stands for this setting: procedure as described in Example 24.

Each structure is given as a SMILES string.

T1 sequence (P46095 whole entry): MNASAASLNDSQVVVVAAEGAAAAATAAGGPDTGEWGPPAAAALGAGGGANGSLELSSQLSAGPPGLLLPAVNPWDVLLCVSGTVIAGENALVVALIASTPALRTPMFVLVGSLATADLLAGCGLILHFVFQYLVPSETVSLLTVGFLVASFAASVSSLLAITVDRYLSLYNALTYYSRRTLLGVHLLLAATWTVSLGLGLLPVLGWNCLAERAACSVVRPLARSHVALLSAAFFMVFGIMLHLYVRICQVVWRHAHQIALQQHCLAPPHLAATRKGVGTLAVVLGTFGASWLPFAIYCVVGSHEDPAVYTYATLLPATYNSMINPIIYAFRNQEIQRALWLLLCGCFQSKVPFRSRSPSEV

As to `CC(=O)N1CCc2nc(N3CCC(COc4ccccc4F)C3)c(-c3cnn(C)c3)nc2C1` (centres unmarked) [Compound 323, 1-(2-{3-[(2-fluorophenoxy)methyl]pyrrolidin-1-yl}-3-(1-methyl-1H-pyrazol-4-yl)-5H,6H,7H,8H-pyrido[3,4-b]pyrazin-6-yl)ethan-1-one], the IC50 on GPR6 (procedure of Example 24) and at GPR3 (procedure of Example 24) was 1 to 30 µM each time.
For the compound `CC(C)(O)[C@H](O)c1cc2nc(N3CCN(Cc4ccccc4F)CC3)c(-c3cnn(C4CC4)c3)nc2cn1` (single isomer, unassigned) [Compound 732], the half-maximal inhibitory concentration (IC50) is 0.1 to 1 µM against GPR6 (procedure of Example 24) and 1 to 30 µM against GPR3 (procedure of Example 24).
As for `O=C(CO)N1CCc2nc(N3CCC(Oc4ccc(F)cc4F)CC3)c(-c3cnn(C4CCCCO4)c3)nc2C1` (centres unmarked) [Compound 204, 1-{2-[4-(2,4-difluorophenoxy)piperidin-1-yl]-3-[1-(oxan-2-yl)-1H-pyrazol-4-yl]-5H,6H,7H,8H-pyrido [3,4-b]pyrazin-6-yl}-2-hydroxyethan-1-one], the results for the IC50 at GPR6 (setting [1]) and at GPR3 (setting [2]) were 0.1 to 1 µM and no less than 30 µM, respectively.
For the compound `Cn1cc(-c2nc3cc([C@@](C)(O)C(C)(C)O)ncc3nc2N2CCN(Cc3ccc(F)cc3F)CC2)cn1` (single isomer, unassigned) [Compound 772], the IC50 at GPR6 (procedure of Example 24) and at GPR3 (procedure of Example 24) was 0.1 to 1 µM each time.
As for `CC(C)(O)C(=O)c1cc2nc(N3CCN(Cc4ccccc4F)CC3)c(-c3cnn(CF)c3)nc2cn1` [Compound 608, 1-{3-[1-(fluoromethyl)-4-pyrazolyl]-2-{4-[(o-fluorophenyl)methyl]-1-piperazinyl}-1,4,6-triaza-7-naphthyl}-2-hydroxy-2-methyl-1-propanone], the IC50 is 0.1 to 1 µM on GPR6 (setting [3]) and 1 to 30 µM at GPR3 (setting [4]).
Regarding `COC1C=C(c2nc3c(nc2N2CCC(Oc4ccc(F)cc4F)CC2)CCN(C(C)=O)C3)CCC1` (centres unmarked) [Compound 247, 1-{2-[4-(2,4-difluorophenoxy)piperidin-1-yl]-3-(3-methoxycyclohex-1-en-1-yl)-5H,6H,7H,8H-pyrido[3,4-b]pyrazin-6-yl}ethan-1-one], the IC50 lay in the range of 0.1 to 1 µM against GPR6 (setting [1]) and 1 to 30 µM on GPR3 (setting [2]).
Regarding `COc1ccc(C(=O)N2CCN(c3nc4c(nc3-c3cnn(C)c3)CN(C(C)=O)CC4)CC2)c(OC)c1` [Compound 287, 1-{2-[4-(2,4-dimethoxybenzoyl)piperazin-1-yl]-3-(1-methyl-1H-pyrazol-4-yl)-5H,6H,7H,8H-pyrido[3,4-b]pyrazin-6-yl}ethan-1-one], the IC50 against GPR6 (procedure of Example 24) and at GPR3 (procedure of Example 24) was no less than 30 µM each time.
For `C=CC(=O)N1CCc2nc(N3CCC(Oc4ccc(F)cc4F)CC3)c(-c3ccc(F)c(N)n3)nc2C1` [Compound 626, 1-{3-(6-amino-5-fluoro-2-pyridyl)-2-[4-(2,4-difluorophenoxy)-1-piperidyl]-5,6,7,8-tetrahydro-1,4,6-triaza-6-naphthyl}-2-propen-1-one], the IC50 at GPR6 (procedure of Example 24) is less than 0.1 µM; against GPR3 (procedure of Example 24), 1 to 30 µM.
Regarding `COc1cncc(-c2nc3cnc(C)cc3nc2N2CCC(Oc3ccc(F)cc3F)CC2)n1` [Compound 230, 2-{2-[4-(2,4-difluorophenoxy)piperidin-1-yl]-7-methylpyrido[3,4-b]pyrazin-3-yl}-6-methoxypyrazine], the IC50 against GPR6 (setting [1]) and on GPR3 (setting [2]) was 1 to 30 µM throughout.
On to `CC(C)(O)[C@@](C)(O)c1cc2nc(N3CCC(Oc4ccc(F)cc4F)CC3)c(-c3cnn(C(F)F)c3)nc2cn1` (single isomer, unassigned) [Compound 656], for which the concentration for half-maximal inhibition (IC50) was 0.1 to 1 µM against GPR6 (procedure of Example 24) and 1 to 30 µM against GPR3 (procedure of Example 24).
`CC(=O)N1CCc2nc(N3CCC(Oc4ccc(F)cc4F)CC3)c(-c3ccc(F)c(=O)[nH]3)nc2C1` [Compound 105, 6-{6-acetyl-2-[4-(2,4-difluorophenoxy)piperidin-1-yl]-5H,6H,7H,8H-pyrido[3,4-b]pyrazin-3-yl}-3-fluoro-1,2-dihydropyridin-2-one]: the IC50 at GPR6 (setting [1]) and on GPR3 (setting [2]) was 1 to 30 µM in each case.
In the case of `CCn1cc(-c2nc3cnc(NC(C)=O)cc3nc2N2CCC(Oc3ccc(F)cc3F)CC2)cn1` [Compound 367, N-{2-[4-(2,4-difluorophenoxy)piperidin-1-yl]-3-(1-ethyl-1H-pyrazol-4-yl)pyrido[3,4-b]pyrazin-7-yl}acetamide], the IC50 against GPR6 (procedure of Example 24) and against GPR3 (procedure of Example 24) was 1 to 30 µM throughout.
Turning to `CC(=O)N1CCc2nc(N3CCN(Cc4cccc(=O)[nH]4)CC3)c(-c3cnn(C)c3)nc2C1` [Compound 530, 6-({4-[6-acetyl-3-(1-methyl-4-pyrazolyl)-5,6,7,8-tetrahydro-1,4,6-triaza-2-naphthyl]-1-piperazinyl}methyl)-2(1H)-pyridinone], the IC50 at GPR6 (setting [3]) and on GPR3 (setting [4]) was no less than 30 µM each time.
`Cn1cc(-c2nc3cnc([C@H]4C[C@@H]4C(=O)O)cc3nc2N2CCC(Oc3ccc(F)cc3F)CC2)cn1` (single isomer, unassigned) [Compound 737]: the 50% inhibitory concentration (IC50) on GPR6 (procedure of Example 24) and on GPR3 (procedure of Example 24) was 1 to 30 µM throughout.
Consider `CC1CN(Cc2ccc(F)cc2F)CCN1c1nc2ccncc2nc1-c1cn[nH]c1` (single isomer, unassigned) [Compound 45, 4-[(2,4-difluorophenyl)methyl]-2-methyl-1-[3-(1H-pyrazol-4-yl)pyrido[3,4-b]pyrazin-2-yl]piperazine], for which the IC50 against GPR6 (setting [5]) and at GPR3 (setting [5]) was 1 to 30 µM in each case.
On to `CC(C)(O)[C@H](O)c1cc2nc(-c3cnn(CF)c3)c(N3CCC(Cc4ccc(F)cc4F)CC3)nc2cn1` (single isomer, unassigned) [Compound 787], for which the half-inhibitory concentration (IC50) against GPR6 (procedure of Example 24) and on GPR3 (procedure of Example 24) was less than 0.1 µM throughout.
On to `CC(=O)N1CCc2nc(N3CCC(Oc4ccc(F)cc4F)CC3)c(-c3cn[nH]c3F)nc2C1` [Compound 135, 1-(2-(4-(2,4-difluorophenoxy)piperidin-1-yl)-3-(5-fluoro-1H-pyrazol-4-yl)-7,8-dihydropyrido[3,4-b]pyrazin-6(5H)-yl)ethanone], for which the IC50 was 0.1 to 1 µM against GPR6 (setting [1]) and 1 to 30 µM on GPR3 (setting [2]).
For the compound `Fc1ccc(OC2CCN(c3nc4ccncc4nc3-c3ccn[nH]3)CC2)c(F)c1` [Compound 85, 4-(2,4-difluorophenoxy)-1-[3-(1H-pyrazol-5-yl)pyrido[3,4-b]pyrazin-2-yl]piperidine], the IC50 on GPR6 (setting [1]) and against GPR3 (setting [2]) was 1 to 30 µM throughout.
Regarding `CC(C)(O)C(O)c1cc2nc(-c3cnn(C4CC4)c3)c(N3CCN(Cc4ccc(F)cc4F)CC3)nc2cn1` (single isomer, unassigned) [Compound 600], the figures for the IC50 against GPR6 (setting [3]) and at GPR3 (setting [4]) were less than 0.1 µM and 0.1 to 1 µM, respectively.
For the compound `COC(=O)c1cc2nc(N3CCC(Oc4ccc(F)cc4F)CC3)c(-c3cnn(C)c3)nc2cn1` [Compound 251, methyl 2-[4-(2,4-difluorophenoxy)piperidin-1-yl]-3-(1-methyl-1H-pyrazol-4-yl)pyrido[3,4-b]pyrazine-7-carboxylate], the half-inhibitory concentration (IC50) against GPR6 (setting [1]) and at GPR3 (setting [2]) was 1 to 30 µM throughout.
For `CC(=O)N1Cc2nc(-c3cnn(C)c3)c(N3CCC(Oc4ccc(F)cc4F)CC3)nc2CC1C` (single isomer, unassigned) [Compound 445], the IC50 at GPR6 (setting [1]) lay in the range of 0.1 to 1 µM; against GPR3 (setting [2]), 1 to 30 µM.
As for `CC(C)(O)[C@H](O)c1cc2nc(-c3cnn(C(F)F)c3)c(N3CCN(Cc4ccccc4F)CC3)nc2cn1` (single isomer, unassigned) [Compound 685], the figures for the 50% inhibitory concentration (IC50) at GPR6 (procedure of Example 24) and at GPR3 (procedure of Example 24) were 0.1 to 1 µM and 1 to 30 µM, respectively.
